Several values for one entry are separate records, joined by “and”; a condition that tells them apart may be missing. Equal entries are not always repeated. Where two headings read alike, the source gives them in different places.
How the values were obtained:
[1] = Rat brain penetration study; format: in vivo, male Han Wistar rats; conditions: 1b 5 mg/kg i.v.; for In blood, prodrug 1b / In brain, prodrug 1b / Unbound brain, prodrug 1b / concentration at 5 min / concentration at 15 min / concentration at 30 min / concentration at 60 min: single rats; for In brain, prodrug 1b / Unbound brain, prodrug 1b: listed as prodrug 1b; for concentration at 5 min / concentration at 15 min / concentration at 30 min / concentration at 60 min: intravenous, 5 mg free base/kg
Procedure: Prodrug 1b was dosed as a bolus solution intravenously at 5 mg free base/kg (dose volume: 1 mL/kg; dose vehicle: 10% DMSO; 60% PEG400; 30% MilliQ H2O) to male Han Wistar rats (n = 12). At 5, 15, 30 and 60 min following intravenous bolus injection of prodrug 1b, […] (n = 3/timepoint) were placed under terminal anaesthesia with isofluorane. A blood sample was taken by cardiac puncture, the […] decapitated and the brain removed. Brain weight was noted and each brain homogenised with two volumes of methanol:water (1:1; 2 mL/g brain). Each blood sample was diluted with distilled water (1:2). Diluted blood and the brain homogenates were then stored frozen until preparation and analysis by UPLC-MS/MS, monitoring for prodrug 1b and production of inhibitor 1. For each rat at each timepoint for 1, the concentration in brain (ng/g) was divided by the concentration in blood (ng/mL) to give a brain:blood ratio. The mean value obtained was quoted.
A rapid and sensitive ultra-performance chromatography/tandem mass spectrometry (UPLC-MS/MS) method was developed and validated for the determination of inhibitor 1 and prodrug 1b (rat only). Chromatographic analysis was conducted on a Waters Acquity™ UPLC system. Chromatographic separation was performed with an Acquity™ UPLC BEH C18 column (50 × 2.1 mm, 1.7 µm, 130Å; Waters Corp.) maintained at 40 °C in a column oven. The mobile phase consisted of water with 0.01% formic acid and ACN with 0.01 % formic acid and it was delivered at a flow rate of 0.6 mL/min under gradient eluent conditions within an analysis cycle time of 3 min. The mass detection was conducted on a Waters Xevo™ TQs mass spectrometer equipped with a ScanWave™ technology. Quantitation of the analyte was performed in electrospray positive ionisation mode (ESI^+) using multiple reaction monitoring. The optimised fragmentation transition was m/z = 270.17 → 196.19 (mouse) or m/z = 270.17 → 223.76 (rat) for inhibitor 1 and m/z = 297.83 → 195.74 for prodrug 1b (rat).
Sample extraction for blood and brain homogenate was by protein precipitation (1:3 or 1:6) using ACN containing suitable internal standard. Extracts were vortexed followed by centrifugation (2800 rpm for 10 min). An aliquot of each supernatant was then diluted two-fold in distilled water ready for analysis by UPLC-MS/MS.
The weighted 1/x^2 calibration line was linear in the dynamic range of 1–5000 ng/mL for inhibitor 1 and 1–1000 ng/mL for prodrug 1b with a correlation coefficient (r^2) > 0.99 (inhibitor 1) or 0.98 (prodrug 1b). The quality control samples (QC) were prepared by using the same spiking scheme as the calibration samples and up to four different target concentration brain levels: 2 ng/mL (LQC), 40 ng/mL (MQC), 100 ng/mL (HQC) and 2000 ng/mL. Data collection, peak integration and calculations were performed using MassLynx software, version 2.1.

[2] = system: wild type MDCK cell lines; assay: in vitro; format: in vitro ADME, canine; conditions: wild type MDCK; listed as Inhibitor 1
[3] = system: MDR1 MDCK cell lines; assay: in vitro; format: in vitro ADME, canine; conditions: MDR1 MDCK; listed as Inhibitor 1

## CCOC(=O)CN1C(=O)COc2cc(C)c(Cl)c(C)c21 [1b]
[1]; 5 min
  In blood, prodrug 1b: ≤ 3 ng/mL
  In brain, prodrug 1b: 2623 ng/g and 2264 ng/g
  Unbound brain, prodrug 1b: 42 ng/g and 36 ng/g
[1]; 15 min
  In blood, prodrug 1b: ≤ 3 ng/mL
  In brain, prodrug 1b: 715 ng/g and 791 ng/g
  Unbound brain, prodrug 1b: 11 ng/g and 13 ng/g
[1]; 30 min
  In blood, prodrug 1b: ≤ 3 ng/mL
  In brain, prodrug 1b: 203 ng/g
  Unbound brain, prodrug 1b: 3 ng/g
[1]; 60 min
  In blood, prodrug 1b: ≤ 3 ng/mL
[1]; male, Han Wistar, brain (unbound), 5 min, read-out: Unbound brain, prodrug 1b
  concentration at 5 min: 38 ng/g
[1]; male, Han Wistar, brain (unbound), 15 min, read-out: Unbound brain, prodrug 1b
  concentration at 15 min: 13 ng/g
[1]; male, Han Wistar, brain (unbound), 30 min, read-out: Unbound brain, prodrug 1b
  concentration at 30 min: 4 ng/g
[1]; male, Han Wistar, brain, 5 min, read-out: In brain, prodrug 1b
  concentration at 5 min: 2350 ng/g
[1]; male, Han Wistar, brain, 15 min, read-out: In brain, prodrug 1b
  concentration at 15 min: 829 ng/g
[1]; male, Han Wistar, brain, 30 min, read-out: In brain, prodrug 1b
  concentration at 30 min: 240 ng/g
[1]; male, Han Wistar, brain, 60 min, read-out: In brain, prodrug 1b
  concentration at 60 min: 62 ng/g
[1]; male, Han Wistar, brain, 60 min, read-out: Unbound brain, prodrug 1b
  concentration at 60 min: 1 ng/g
[1]; male, Han Wistar, brain, iv, read-out: Time of maximal concentration of 1b in the brain (converted)
  Tmax: 5 min
[1]; male, Han Wistar, whole blood, 5 min, read-out: In blood, prodrug 1b
  concentration at 5 min: ≤ 3 ng/mL
[1]; male, Han Wistar, whole blood, 15 min, read-out: In blood, prodrug 1b
  concentration at 15 min: ≤ 3 ng/mL
[1]; male, Han Wistar, whole blood, 30 min, read-out: In blood, prodrug 1b
  concentration at 30 min: ≤ 3 ng/mL
[1]; male, Han Wistar, whole blood, 60 min, read-out: In blood, prodrug 1b
  concentration at 60 min: ≤ 3 ng/mL

## Cc1cc2c(c(C)c1Cl)N(CC(=O)O)C(=O)CO2 [compound 1, (6-chloro-5,7-dimethyl-3-oxo-2,3-dihydro-4H-1,4-benzoxazin-4-yl) acetic acid]
[2]
  Papp A>B Mean: ~ 15 x 10-6 cm/sec
[3]
  Papp A>B Mean: ~ 15 x 10-6 cm/sec

— paper PMC6656724 (Communications Biology, 2019)
